In patent US9999616B2 (ZENITH EPIGENETICS LTD., priority 2013, dated 2018):

Assays:
[1] = tested on: c-myc in Human AML MV4-11 cells; assay: Inhibition of cMYC expression (mRNA, real-time PCR) in MV4-11 cells; format: cell-based; conditions: 3 h treatment, cMYC mRNA by real-time PCR
Method: MV4-11 cells (CRL-9591) were plated at a density of 2.5×10^4 cells per well in 96 well U-bottom plates and treated with increasing concentrations of test compound or DMSO (0.1%) in IMDM media containing 10% FBS and penicillin/streptomycin, and incubated for 3 h at 37′C. Triplicate wells were used for each concentration. Cells were pelleted by centrifugation and harvested using the mRNA Catcher PLUS kit according to manufacturer's instructions. The eluted mRNA isolated was then used in a one-step quantitative real-time PCR reaction, using components of the RNA UltraSense™ One-Step Kit (Life Technologies) together with Applied Biosystems TaqMan® primer-probes for cMYC and Cyclophilin. Real-time PCR plates were run on a ViiA™7 real time PCR machine (Applied Biosystems), data was analyzed, normalizing the Ct values for cMYC to an internal control, prior to determining the fold expression of each sample, relative to the control.

Human AML MV-4-11 cells = assay: Inhibition of cell proliferation in MV4-11 cells (CellTiter Aqueous One); format: cell-based; conditions: MV4-11, 72 h
Method: MV4-11 cells (CRL-9591) were plated at a density of 5×10^4 cells per well in 96 well flat bottom plates and treated with increasing concentrations of test compound or DMSO (0.1%) in IMDM media containing 10% FBS and penicillin/streptomycin. Triplicate wells were used for each concentration and a well containing only media was used as a control. Plates were incubated at 37° C., 5% CO2 for 72 h before adding 20 µL of the CellTiter Aqueous One Solution (Promega) to each well and incubated at 37° C., 5% CO2 for an additional 3-4 h. The absorbance was read at 490 nm in a spectrophotometer and the percentage of cell titer relative to DMSO-treated cells was calculated after correcting for background by subtracting the blank well's signal. IC50 values were calculated using the GraphPad Prism software.

hIL-6 mRNA = assay: Inhibition of hIL-6 mRNA transcription in LPS-stimulated U937 macrophages; format: cell-based, Human; conditions: Homo sapiens, U-937, PMA-differentiated U937 cells, 1 h pretreatment, LPS 3 h, read-out: IL-6 activity
Method: Human leukemic monocyte lymphoma U937 cells (CRL-1593.2) were plated at a density of 3.2×10^4 cells per well in a 96-well plate in 100 μL RPMI-1640 containing 10% FBS and penicillin/streptomycin, and differentiated into macrophages for 3 days in 60 ng/mL PMA ([…]) at 37° C. in 5% CO2 prior to the addition of compound. The cells were pretreated for 1 h with increasing concentrations of test compound in 0.1% DMSO prior to stimulation with 1 ug/mL lipopolysaccharide from Escherichia coli. Triplicate wells were used for each concentration. The cells were incubated at 37° C., 5% CO2 for 3 h before the cells were harvested. At time of harvest, media was removed and cells were rinsed in 200 μL PBS. Cells were harvested using the mRNA Catcher PLUS kit according to manufacturer's instructions. The eluted mRNA was then used in a one-step quantitative real-time PCR reaction using components of the RNA UltraSense™ One-Step Kit (Life Technologies) together with Applied Biosystems TaqMan® primer-probes for hIL-6 and Cyclophilin. Real-time PCR plates were run on a ViiA™7 real time PCR machine (Applied Biosystems), data was analyzed, normalizing the Ct values for hlL-6 to an internal control, prior to determining the fold expression of each sample, relative to the control.

[2] = molecular target: Brd4 bromodomain 1 (BRD4(1)) (Homo sapiens, UniProt O60885); assay: Inhibition of tetra-acetylated histone H4 binding to Brd4 bromodomain 1, measured by FRET (HTRF); design: made in house; host or cells: E. coli BL21(DE3); conditions: 2 h at room temperature
Summary of the method: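 Inhibition was read as a drop in 665 nm relative to 620 nm HTRF signal after 2 h at room temperature, with IC50 from dose-response curves in duplicate wells. Reactions held 200 nM E. coli-expressed His-tagged bromodomain and 25-50 nM biotinylated tetra-acetylated histone H4 peptide. Buffer was 30 mM HEPES pH 7.4 with KF, CHAPS, BSA and 0.2% DMSO.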

Cc1nc2c(-c3ncccc3C)cc(-c3c(C)noc3C)cc2[nH]1 [Example Compound 84, 3,5-dimethyl-4-(2-methyl-4-(3-methyl-pyridin-2-yl)-1H-benzo[d]imidazol-6 yl)isoxazole]
IC50 [1]: 300 to 3000 nM | IC50 (Human AML MV-4-11 cells): 3000 to 30000 nM | IC50 (hIL-6 mRNA): 300 to 3000 nM | IC50 [2]: 300 to 3000 nM

Cc1nc2c(N3CCOCC3)cc(-c3c(C)noc3C)cc2[nH]1 [Example Compound 173, 4-(6-(3,5-dimethyl-isoxazol-4-yl)-2-methyl-1H-benzo[d]imidazol-4-yl) morpholine]
IC50 [1]: 300 to 3000 nM | IC50 (Human AML MV-4-11 cells): 300 to 3000 nM | IC50 (hIL-6 mRNA): 300 to 3000 nM | IC50 [2]: ≤ 300 nM

Cc1noc(C)c1-c1cc(NCc2ccc(F)cc2)c2nc[nH]c2c1 [Example Compound 38, 6-(3,5-dimethyl-isoxazol-4-yl)-N-(4-fluorobenzyl)-1H-benzo[d] imidazol-4-amine]
IC50 [1]: 300 to 3000 nM | IC50 (Human AML MV-4-11 cells): 300 to 3000 nM | IC50 (hIL-6 mRNA): 300 to 3000 nM | IC50 [2]: ≤ 300 nM

COc1ccc(F)cc1-c1cc(-c2c(C)noc2C)cc2[nH]c(C)nc12 [Example Compound 112, 4-(4-(5-fluoro-2-methoxy-phenyl)-2-methyl-1H-benzo[d]imidazol-6-yl)-3,5-dimethyl-isoxazole]
IC50 [1]: ≤ 300 nM | IC50 (Human AML MV-4-11 cells): 300 to 3000 nM | IC50 (hIL-6 mRNA): ≤ 300 nM | IC50 [2]: ≤ 300 nM

Cc1nc2c(-c3c(C)ncnc3C)cc(-c3c(C)noc3C)cc2[nH]1 [Example Compound 98, 4-(4-(4,6-dimethyl-pyrimidin-5-yl)-2-methyl-1H-benzo[d]imidazol-6-yl)-3,5-dimethyl isoxazole]
IC50 [1]: 300 to 3000 nM | IC50 (Human AML MV-4-11 cells): 300 to 3000 nM | IC50 (hIL-6 mRNA): 300 to 3000 nM | IC50 [2]: ≤ 300 nM

Cc1nc2c(N3CCOCC3C)cc(-c3c(C)noc3C)cc2[nH]1 (centres unmarked) [Example Compound 177, 4-(6-(3,5-dimethyl-isoxazol-4-yl)-2-methyl-1H-benzo[d]imidazol-4-yl)-3-methyl morpholine]
IC50 [1]: ≤ 300 nM | IC50 (Human AML MV-4-11 cells): 300 to 3000 nM | IC50 (hIL-6 mRNA): 300 to 3000 nM | IC50 [2]: ≤ 300 nM

Cc1noc(C)c1-c1cc(NCc2ccccc2)c2nncn2c1 [Example Compound 24, N-benzyl-6-(3,5-dimethylisoxazol-4-yl)-[1,2,4]triazolo[4,3-o]pyridin-8-amine]
IC50 [1]: 300 to 3000 nM | IC50 (Human AML MV-4-11 cells): 3000 to 30000 nM | IC50 (hIL-6 mRNA): 300 to 3000 nM | IC50 [2]: ≤ 300 nM

Cc1nc2c(-c3ccccc3)cc(-c3c(C)noc3C)cc2[nH]1 [Example Compound 88, 3,5-dimethyl-4-(2-methyl-4-phenyl-1H-benzo[d]imidazol 6-yl)isoxazole]
IC50 [1]: 300 to 3000 nM | IC50 (Human AML MV-4-11 cells): 300 to 3000 nM | IC50 (hIL-6 mRNA): 300 to 3000 nM | IC50 [2]: ≤ 300 nM

Cc1nc2c(-c3ccccc3S(C)(=O)=O)cc(-c3c(C)noc3C)cc2[nH]1 [Example Compound 69, 3,5-dimethyl-4-(2-methyl-4-(2-(methyl-sulfonyl)phenyl)-1H-benzo[d]imidazol-6-yl)isoxazole]
IC50 [1]: 300 to 3000 nM | IC50 (Human AML MV-4-11 cells): 300 to 3000 nM | IC50 (hIL-6 mRNA): 300 to 3000 nM | IC50 [2]: ≤ 300 nM

COc1ccc(Nc2cc(-c3c(C)noc3C)cc3[nH]cnc23)cc1 [Example Compound 25, 6-(3,5-dimethylisoxazol-4-yl)-N-(4-methoxyphenyl)-1H-benzo[d]imidazol-4-amine]
IC50 [1]: 300 to 3000 nM | IC50 (Human AML MV-4-11 cells): 300 to 3000 nM | IC50 (hIL-6 mRNA): 300 to 3000 nM | IC50 [2]: 300 to 3000 nM

Cc1noc(C)c1-c1cc(-c2cc(N)c(=O)n(C)c2)c2nc[nH]c2c1 [Example Compound 225, 3-amino-5-(6-(3,5-dimethylisoxazol-4-yl)-1H-benzo[d]imidazol-4-yl)-1-methyl-pyridin-2(1H)-one]
IC50 [1]: 300 to 3000 nM | IC50 (Human AML MV-4-11 cells): 3000 to 30000 nM | IC50 (hIL-6 mRNA): 3000 to 30000 nM | IC50 [2]: 300 to 3000 nM
